According to patent EP3755703B1, “N-(PHENYL)-2-(PHENYL)PYRIMIDINE-4-CARBOXAMIDE DERIVATIVES AND RELATED COMPOUNDS AS HPK1 INHIBITORS FOR TREATING CANCER” (Incyte Corporation, priority 2018, dated 2019):

The molecules below were run against T1, HPK1 (Homo sapiens, UniProt Q92918) (assay: HPK1 Kinase Binding Assay). Conditions: LanthaScreen tracer 222, one hour incubation at 25 °C.
T1 construct: purchased SignalChem M23-11G
T1 sequence (Q92918 1-346 limits assumed): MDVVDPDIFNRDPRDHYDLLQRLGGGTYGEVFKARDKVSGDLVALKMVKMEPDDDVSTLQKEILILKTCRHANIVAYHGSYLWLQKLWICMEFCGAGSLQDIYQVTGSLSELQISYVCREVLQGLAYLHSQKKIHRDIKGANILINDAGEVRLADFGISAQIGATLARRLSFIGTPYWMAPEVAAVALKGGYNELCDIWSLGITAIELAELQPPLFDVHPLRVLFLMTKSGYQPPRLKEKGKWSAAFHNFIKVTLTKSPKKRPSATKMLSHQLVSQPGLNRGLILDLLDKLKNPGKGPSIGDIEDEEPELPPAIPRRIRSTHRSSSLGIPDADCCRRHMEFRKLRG
Experimental: A stock solution of 1 mM test compound was prepared in DMSO. The compound plate was prepared by 3-fold and 11-point serial dilutions. 0.1 µL of the compound in DMSO was transferred from the compound plate to the white 384 well polystyrene plates. The assay buffer contained 50 mM HEPES, pH 7.5, 0.01% Tween-20, 5 mM MgCl2, 0.01% BSA, and 5 mM DTT. 5 µL of 4 nM active HPK1 (SignalChem M23-11G) prepared in the buffer was added to the plate. The enzyme concentration given was based on the given stock concentration reported by the vender. […] After one hour incubation at 25 °C, the plates were read on a PHERAstar FS plate reader (BMG Labtech). Ki values were determined.
`COc1cccc(F)c1-c1nccc(C(=O)Nc2ccc(S(C)(=O)=O)cc2N2C[C@@H](N)C[C@H]2CO)n1` [Example 85, N-(2-((2S,4S)-4-Amino-2-(hydroxymethyl)pyrrolidin-1-yl)-4-(methylsulfonyl)phenyl)-2-(2-fluoro-6-methoxyphenyl)pyrimidine-4-carboxamide] was tested, and the Ki was under 100 nM.
`N#Cc1ccncc1-c1ccc(NC(=O)c2ccnc(-c3c(F)cccc3OC(F)F)n2)c(N2C[C@@H](N)C[C@H]2CO)c1` [Example 95, N-(2-((2S,4S)-4-Amino-2-(hydroxymethyl)pyrrolidin-1-yl)-4-(4-cyanopyridin-3-yl)phenyl)-2-(2-(difluoromethoxy)-6-fluorophenyl)pyrimidine-4-carboxamide] gave a Ki of under 100 nM.
For `N#Cc1ccncc1-c1ccc(NC(=O)c2ccnc(-c3c(F)cccc3Cl)n2)c(N2C[C@@H](N)C[C@H]2CO)c1` [Example 64, N-(2-((2S,4S)-4-Amino-2-(hydroxymethyl)pyrrolidin-1-yl)-4-(4-cyanopyridin-3-yl)phenyl)-2-(2-chloro-6-fluorophenyl)pyrimidine-4-carboxamide], the Ki was under 100 nM.
`COc1cccc(F)c1-c1nccc(C(=O)Nc2cc(F)c(-c3ccc(CO)nc3)cc2N2C[C@@H]3C[C@H]2CN3)n1` [Example 20, N-(2-((1S,4S)-2,5-Diazabicyclo[2.2.1]heptan-2-yl)-5-fluoro-4-(6-(hydroxymethyl)pyridin-3-yl)phenyl)-2-(2-fluoro-6-methoxyphenyl)pyrimidine-4-carboxamide] was tested, and the Ki was under 100 nM.
For `COc1cccc(F)c1-c1nccc(C(=O)Nc2cc(CO)ccc2N2C[C@H]3C[C@@H]2CN3)n1` [Example 36, N-(2-((1R,4R)-2,5-Diazabicyclo[2.2.1]heptan-2-yl)-5-(hydroxymethyl)phenyl)-2-(2-fluoro-6-methoxyphenyl)pyrimidine-4-carboxamide], the Ki was under 100 nM.
`COc1cccc(F)c1-c1nccc(C(=O)Nc2ccc(-c3cnccc3C#N)cc2N2CCN3C(=O)OC[C@H]3C2)n1` [Example 103, (R)-N-(4-(4-Cyanopyridin-3-yl)-2-(3-oxotetrahydro-3H-oxazolo[3,4-a]pyrazin-7(1H)-yl)phenyl)-2-(2-fluoro-6-methoxyphenyl)pyrimidine-4-carboxamide] gave a Ki of under 100 nM.
`COc1cccc(F)c1-c1nccc(C(=O)Nc2cc(F)c(CNC3CCC3)cc2N2C[C@@H]3C[C@H]2CN3)n1` [Example 31, N-(2-((1S,4S)-2,5-Diazabicyclo[2.2.1]heptan-2-yl)-4-((cyclobutylamino)methyl)-5-fluorophenyl)-2-(2-fluoro-6-methoxyphenyl)pyrimidine-4-carboxamide] was tested, and the Ki was under 100 nM.
`COc1ccc(C(=O)Nc2ccc(-c3cnccc3C#N)cc2N2C[C@@H](N)C[C@H]2CO)nc1-c1c(F)cccc1OC` [Example 61, N-(2-((2S,4S)-4-Amino-2-(hydroxymethyl)pyrrolidin-1-yl)-4-(4-cyanopyridin-3-yl)phenyl)-6-(2-fluoro-6-methoxyphenyl)-5-methoxypicolinamide] was tested, and the Ki was 100 to 500 nM.
`COc1cccc(F)c1-c1nccc(C(=O)Nc2ccc(-c3cnccc3C#N)cc2N2C[C@H](C)NC[C@H]2CO)n1` [Example 51, N-(4-(4-Cyanopyridin-3-yl)-2-((2S,5S)-2-(hydroxymethyl)-5-methylpiperazin-1-yl)phenyl)-2-(2-fluoro-6-methoxyphenyl)pyrimidine-4-carboxamide] gave a Ki of under 100 nM.
`COc1cccc(F)c1-c1nccc(C(=O)Nc2ccc(-c3ccncc3C#N)c(F)c2N2C[C@@H]3C[C@H]2CN3)n1` [Example 40, N-(2-((1S,4S)-2,5-Diazabicyclo[2.2.1]heptan-2-yl)-4-(3-cyanopyridin-4-yl)-3-fluorophenyl)-2-(2-fluoro-6-methoxyphenyl)pyrimidine-4-carboxamide] gave a Ki of under 100 nM.
Work on `COC[C@H]1CCCN1c1ccc(F)cc1NC(=O)c1ccnc(-c2c(F)cccc2OC)n1` [Example 5, (R)-N-(5-Fluoro-2-(2-(methoxymethyl)pyrrolidin-1-yl)phenyl)-2-(2-fluoro-6-methoxyphenyl)pyrimidine-4-carboxamide] yielded a Ki of 100 to 500 nM.
`COc1cccc(F)c1-c1nccc(C(=O)Nc2ccc(C(C)C)cc2N2C[C@@H](N)C[C@H]2CO)n1` [Example 48, N-(2-((2S,4S)-4-Amino-2-(hydroxymethyl)pyrrolidin-1-yl)-4-isopropylphenyl)-2-(2-fluoro-6-methoxyphenyl)pyrimidine-4-carb oxamide] gave a Ki of under 100 nM.
For `N#Cc1ccncc1-c1ccc(NC(=O)c2ccnc(-c3c(F)cccc3F)n2)c(N2C[C@@H](N)C[C@H]2CO)c1` [Example 62, N-(2-((2S,4S)-4-Amino-2-(hydroxymethyl)pyrrolidin-1-yl)-4-(4-cyanopyridin-3-yl)phenyl)-2-(2,6-difluorophenyl)pyrimidine-4-carboxamide], the Ki was under 100 nM.
In the case of `COCC1CN(c2cc(-c3cnccc3C#N)ccc2NC(=O)c2ccnc(-c3c(F)cccc3OC)n2)C1` [Example 105, N-(4-(4-Cyanopyridin-3-yl)-2-(3-(methoxymethyl)azetidin-1-yl)phenyl)-2-(2-fluoro-6-methoxyphenyl)pyrimidine-4-carboxamide], the Ki is reported as under 100 nM.
`COc1cccc(F)c1-c1nccc(C(=O)Nc2ccc(N3CCC3)cc2N2C[C@@H]3C[C@H]2CN3)n1` [Example 38, N-(4-(Azetidin-1-yl)-2-((1S,4S)-2,5-diazabicyclo[2.2.1]heptan-2-yl)phenyl)-2-(2-fluoro-6-methoxyphenyl)pyrimidine-4-carboxamide] showed a Ki of under 100 nM.
With `COc1cccc(F)c1-c1nccc(C(=O)Nc2ccc(-c3c(F)cccc3C#N)cc2N2C[C@@H](N)C[C@H]2CO)n1` [Example 45, N-(3-((2S,4S)-4-Amino-2-(hydroxymethyl)pyrrolidin-1-yl)-2'-cyano-6'-fluorobiphenyl-4-yl)-2-(2-fluoro-6-methoxyphenyl)pyrimidine-4-carboxamide] the Ki was under 100 nM.
Molecule `COc1cccc(F)c1-c1nccc(C(=O)Nc2cc(F)ccc2N2C[C@H]3C[C@@H]2CN3CCO)n1` [Example 33, N-(5-Fluoro-2-((1R,4R)-5-(2-hydroxyethyl)-2,5-diazabicyclo[2.2.1]heptan-2-yl)phenyl)-2-(2-fluoro-6-methoxyphenyl)pyrimidine-4-carboxamide] has a Ki of under 100 nM.
Molecule `COc1cccc(F)c1-c1nccc(C(=O)Nc2ccc(-c3cnccc3C#N)cc2N2C[C@@H](N)C[C@H]2C2(O)CC2)n1` [Example 53, N-(2-((2S,4S)-4-Amino-2-(1-hydroxycyclopropyl)pyrrolidin-1-yl)-4-(4-cyanopyridin-3-yl)phenyl)-2-(2-fluoro-6-methoxyphenyl)pyrimidine-4-carboxamide] has a Ki of under 100 nM.
`[2H]C([2H])([2H])Oc1ccc(C#N)c(F)c1-c1nccc(C(=O)Nc2ccc(-c3cnccc3C#N)cc2N2C[C@@H](N)C[C@H]2CO)n1` [Example 74, N-(2-((2S,4S)-4-Amino-2-(hydroxymethyl)pyrrolidin-1-yl)-4-(4-cyanopyridin-3-yl)phenyl)-2-(3-cyano-2-fluoro-6-(methoxy-d3)phenyl)pyrimidine-4-carboxamide] gave a Ki of under 100 nM.
`COc1cccc(F)c1-c1nccc(C(=O)Nc2cc(F)ccc2N2C[C@@H](O)C[C@@H]2C)n1` [Example 7, N-(5-Fluoro-2-((2S,4S)-4-hydroxy-2-methylpyrrolidin-1-yl)phenyl)-2-(2-fluoro-6-methoxyphenyl)pyrimidine-4-carboxamide] gave a Ki of under 100 nM.
Work on `COc1cccc(F)c1-c1nccc(C(=O)Nc2cc(F)ccc2N2CCN[C@H](CO)C2)n1` [Example 104, (S)-N-(5-Fluoro-2-(3-(hydroxymethyl)piperazin-1-yl)phenyl)-2-(2-fluoro-6-methoxyphenyl)pyrimidine-4-carboxamide] yielded a Ki of under 100 nM.
`COc1cccc(F)c1-c1nccc(C(=O)Nc2ccc(-c3cnccc3C#N)cc2N2[C@@H]3CN[C@@H](C3)[C@@H]2CO)n1` [Example 56, N-(4-(4-Cyanopyridin-3-yl)-2-((1S,3R,4S)-3-(hydroxymethyl)-2,5-diazabicyclo [2.2.1]heptan-2-yl)phenyl)-2-(2-fluoro-6-methoxyphenyl)pyrimidine-4-carboxamide] showed a Ki of under 100 nM.
`COc1cccc(F)c1-c1nccc(C(=O)Nc2ccc(-c3ccncc3C#N)cc2N2C[C@@H](O)C[C@H]2CO)n1` [Example 49, N-(4-(3-Cyanopyridin-4-yl)-2-((2S,4S)-4-hydroxy-2-(hydroxymethyl)pyrrolidin-1-yl)phenyl)-2-(2-fluoro-6-methoxyphenyl)pyrimidine-4-carboxamide] was tested, and the Ki was under 100 nM.
`COc1cccc(F)c1-c1nccc(C(=O)Nc2cc(F)ccc2N2CCC3CNCC32)n1` (stereo not shown) [Example 9, N-(5-Fluoro-2-(hexahydropyrrolo[3,4-b]pyrrol-1(2H)-yl)phenyl)-2-(2-fluoro-6-methoxyphenyl)pyrimidine-4-carboxamide] showed a Ki of 500 to 5000 nM.
